Test results as given in patent US20040142317A1, “Use of amino acid transporter atbo,+ as a delivery system for drugs and prodrugs” (priority 2003, published 2004).
“And” between values parts separate entries of the source, which are not always exact repeats. Equal values may be shown once.

Experiments:
[1] = molecular target: T1, mouse ATB^0,+ (Mus musculus, UniProt Q9JMA9); settings: for Current in X. laevis oocytes: NaCl medium pH 7.5, voltage clamp; for Current in X. laevis oocytes (nA), L-isomer: L-amino acid 1 mM; for Current in X. laevis oocytes (nA), L-isomer / Current in X. laevis oocytes (nA), D-isomer: NaCl pH 7.5; for Current in X. laevis oocytes (nA), D-isomer: D-amino acid 1 mM
T1 sequence (Q9JMA9 1-638): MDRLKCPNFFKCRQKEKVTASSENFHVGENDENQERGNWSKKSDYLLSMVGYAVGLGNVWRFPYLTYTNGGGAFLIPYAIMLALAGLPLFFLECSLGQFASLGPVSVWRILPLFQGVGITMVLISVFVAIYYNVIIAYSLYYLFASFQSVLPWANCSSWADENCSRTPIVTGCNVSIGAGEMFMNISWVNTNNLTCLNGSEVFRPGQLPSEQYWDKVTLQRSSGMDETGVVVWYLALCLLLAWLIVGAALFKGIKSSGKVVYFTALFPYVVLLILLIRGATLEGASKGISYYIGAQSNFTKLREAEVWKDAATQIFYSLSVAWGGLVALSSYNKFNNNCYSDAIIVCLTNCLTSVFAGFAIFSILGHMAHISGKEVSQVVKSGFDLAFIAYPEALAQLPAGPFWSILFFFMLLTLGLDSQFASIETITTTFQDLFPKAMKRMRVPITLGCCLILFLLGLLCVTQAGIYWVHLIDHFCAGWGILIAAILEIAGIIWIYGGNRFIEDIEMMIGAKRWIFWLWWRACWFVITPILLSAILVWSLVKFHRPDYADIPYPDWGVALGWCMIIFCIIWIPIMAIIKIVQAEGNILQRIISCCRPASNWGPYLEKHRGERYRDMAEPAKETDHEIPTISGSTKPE

[2] = molecular target: T1, mouse ATB^0,+
[3] = molecular target: T1, mouse ATB^0,+; experiment: Transport of radiolabeled substrates in HRPE cells expressing cloned mouse ATB0,+; format: cell-based; settings: HRPE cells, radiolabeled substrate
[4] = molecular target: T1, mouse ATB^0,+; remark: listed apart in the source
[5] = molecular target: T1, mouse ATB^0,+; experiment: Inhibition of ATB0,+-specific [3H]-L-NNA transport by amino acids in HRPE cells; format: cell-based; settings: amino acids 5 mM; [3H]-L-NNA 10 μM

CSC(N)=NCCC[C@H](N)C(=O)O [L-MTC]
inward current in the absence of Cl− (sodium gluconate) ([1]; compound 1 mM): no measurable currents
inward current in the absence of Na+ (NMDG chloride) ([1]; compound 1 mM): no measurable currents
Current in X. laevis oocytes ([1]; compound 1 mM): 116±34 nA and 118 ± 34 nA
K0.5 (concentration inducing half-maximal current; Michaelis-Menten constant) ([1]; oocytes, membrane potential −50 mV): 1.36 ± 0.08 mM

N[C@@H](CC(=O)OCc1ccccc1)C(=O)O [L-Aspartate β-benzyl ester]
IC50 [2]: 70 ± 8 µM
potency relative to benzyl ester of glutamate ([2]; from IC50 values): about 2 fold

N=C(NCCC[C@H](N)C(=O)O)N[N+](=O)[O-] [L-NNA, N^ω-nitro-L-arginine]
Michaelis-Menten constant (Kt) of transport via mouse ATB^0,+ [3]: 0.75 ± 0.10 mM
transport in ATB^0,+ cDNA-transfected cells compared to vector-transfected cells [3]: 4 fold
activity [4]: 21%
Current in X. laevis oocytes ([1]; compound 1 mM): 200 ± 92 nA
IC50 [2]: 560 ± 40 µM

N[C@@H](Cc1c[nH]cn1)C(=O)O [Histidine]
Current in X. laevis oocytes (nA), L-isomer [1]: 410 ± 64 nA

N[C@H](Cc1c[nH]cn1)C(=O)O [D-Histidine, D-histidine]
Current in X. laevis oocytes (nA), D-isomer [1]: 29 ± 6 nA

CSCC[C@H](N)C(=O)O [L-Methionine, Methionine]
Current in X. laevis oocytes (nA), L-isomer [1]: 278 ± 26 nA

CCNC(=N)NCCC[C@H](N)C(=O)O [L-NMEA]
Current in X. laevis oocytes ([1]; compound 1 mM): 138 ± 16 nA

CC(C)C[C@H](N)C(=O)O [Leucine]
Current in X. laevis oocytes (nA), L-isomer [1]: 187 ± 14 nA

NC(=O)CC[C@@H](N)C(=O)O [D-Glutamine, D-glutamine]
Current in X. laevis oocytes (nA), D-isomer [1]: 16 ± 11 nA

NC(=O)C[C@H](N)C(=O)O [Asparagine, L-Asparagine]
Current in X. laevis oocytes (nA), L-isomer [1]: 394 ± 67 nA

C[N+](C)(C)CC(=O)O [betaine]
effect on ATB^0,+-mediated glycine transport (in words) ([2]; glycine 10 μM, HRPE cells): little or no effect

NC(=NCCC[C@H](N)C(=O)OCc1ccccc1)N[N+](=O)[O-] [L-NABE]
Current in X. laevis oocytes ([1]; compound 1 mM): 16 ± 2 nA

CN(C)C(N)=NCCC[C@H](N)C(=O)O [L-NDMA]
Current in X. laevis oocytes ([1]; compound 1 mM): 85 ± 15 nA

CC[C@H](C)[C@H](N)C(=O)O [Isoleucine]
Current in X. laevis oocytes (nA), L-isomer [1]: 117 ± 16 nA

N[C@H](Cc1ccccc1)C(=O)O [D-Phenylalanine, D-phenylalanine]
Current in X. laevis oocytes (nA), D-isomer [1]: 24 ± 24 nA

N[C@@H](CO)C(=O)O [Serine]
inhibition of ATB^0,+-specific L-NNA transport [5]: inhibition
Current in X. laevis oocytes (nA), L-isomer [1]: 470 ± 42 nA

CC[C@H](C)[C@H](N)C(=O)O [D-Isoleucine, Isoleucine]
Current in X. laevis oocytes (nA), D-isomer [1]: 4 ± 4 nA

N=C(N)NCCC[C@H](N)C(=O)O [D-Arginine, Arginine]
Current in X. laevis oocytes (nA), D-isomer [1]: 6 ± 1 nA

C[C@H](O)[C@@H](N)C(=O)O [D-Threonine, D-threonine]
Current in X. laevis oocytes (nA), D-isomer [1]: 41 ± 5 nA

COC(=O)[C@@H](N)CCCNC(=N)N[N+](=O)[O-] [L-NAME]
Current in X. laevis oocytes ([1]; compound 1 mM): 11 ± 2 nA

NCCC[C@H](N)C(=O)O [Ornithine]
Current in X. laevis oocytes ([1]; compound 1 mM): 131 ± 27 nA

NC(=O)NCCC[C@H](N)C(=O)O [Citrulline]
Current in X. laevis oocytes ([1]; compound 1 mM): 498 ± 114 nA

N[C@@H](CCC(=O)OCc1ccccc1)C(=O)O [L-Glutamate γ-benzyl ester]
IC50 [2]: 156 ± 12 µM
